For assay [1], the system named is patients suffering from oro-pharyngeal catarrh accompanied by pain (sore throat). Briefly: Example 1: placebo-controlled double-blind trial, two days of treatment with ambroxol lozenges. It is filed as in vivo, human. The settings on record: up to six lozenges containing 20 mg ambroxol hydrochloride per day, vs placebo. An excerpt: The activity of ambroxol according to the invention is intended to be illustrated by the following three examples of clinical trials which investigate: 1) the […] of ambroxol lozenges by measurement of the redness symptom and 2) the efficacy and tolerability of ambroxol lozenges relative to placebo in relieving the symptoms of sore throat of at least moderately severe intensity in patients suffering from oro-pharyngeal catarrh accompanied by pain.
The first study was a multi-centre, prospective, placebo-controlled, randomized, double-blind trial involving two days of treatment with up to six lozenges containing 20 mg ambroxol hydrochloride per day.
109 patients were treated with ambroxol and 109 patients with placebo.

Another assay has as its system interleukin-2 (IL-2). The settings on record: bronchoalveolar lavage cells and peripheral blood mononuclear cells stimulated with phythemagglutine; cited from earlier work.
The test system of another assay is interferon-γ (INF-γ). The settings on record: bronchoalveolar lavage cells and peripheral blood mononuclear cells stimulated with phythemagglutine; cited from earlier work.
Another assay has as its system IL-1. The settings on record: human mononuclear cells stimulated with lipopolysaccharide; cited from earlier work.
Assay [2] deals with tumor necrosis factor α (TNF-α). Conditions: human mononuclear cells stimulated with lipopolysaccharide; cited from earlier work.
The next assay has as its system IL-10 / IL-12 balance. Conditions: in vitro; cited from earlier work.
Another assay concerns TNF. The settings on record: in vitro; cited from earlier work.

Consider two compounds from patent publication US20050075403A1, “Ambroxol for the treatment of inflammation in the pharynx” (priority 2003, published 2005).

SMILES strings stand for the structures.

Consider `Nc1c(Br)cc(Br)cc1CN[C@H]1CC[C@H](O)CC1` [ambroxol, trans-4-(2-amino-3,5-dibromobenzylamino)-cyclohexanole], for which, in assay [1], the “pain (primary endpoint)” value is reported as “reduced statistically significantly”. Further, in the assay on interleukin-2 (IL-2), the “secretion of interleukin-2 (IL-2)” value is reported as “decrease the secretion”. The “secretion of interferon-γ (INF-γ)” value in the assay on interferon-γ (INF-γ) is “decrease the secretion”. The “production of IL-1” value with IL-1 is “inhibit the production”. In addition, the “production of tumor necrosis factor α (TNF-α)” value in assay [2] is on record as “inhibit the production”. In addition, in the assay on IL-10 / IL-12 balance, the “inflammatory responses, local balance of IL-10 and IL-12” value is given as “enhance inflammatory responses”.

Turning to `CC(C(=O)O)c1cccc(C(=O)c2ccccc2)c1` (stereo not shown) [ketoprofen], the “release of inflammatory TNF” value with TNF is given as “induce the release”.
